Experiment: xn = mol fraction of the nth substance listed
Settings: 96.7 kPa

Q: Which results are given for `CS(C)=O` + CC(=O)[O-].CCCC[n+]1ccn(C)c1?
A: viscosity (303.15 K, x2 = 0): 1.8 mPa·s; viscosity (308.15 K, x2 = 0): 1.665 mPa·s; viscosity (313.15 K, x2 = 0): 1.529 mPa·s; viscosity (318.15 K, x2 = 0): 1.407 mPa·s; viscosity (323.15 K, x2 = 0): 1.304 mPa·s; viscosity (328.15 K, x2 = 0): 1.211 mPa·s; viscosity (333.15 K, x2 = 0): 1.127 mPa·s; viscosity (343.15 K, x2 = 0): 0.989 mPa·s; viscosity (348.15 K, x2 = 0): 0.931 mPa·s

Q: Which viscosity (303.15 K, x1 = 0.21) does the source give for `CC(=O)[O-].CCCC[n+]1ccn(C)c1` + CS(C)=O here?
A: The viscosity was 6.44 mPa·s.

Q: And the viscosity (303.15 K, x1 = 0.285)?
A: Its viscosity is 9.15 mPa·s.

Q: And the viscosity (303.15 K, x1 = 0.369)?
A: Its viscosity is 13.34 mPa·s.

Q: What about the viscosity (303.15 K, x1 = 0.478) of the same molecule?
A: Its viscosity is 22.7 mPa·s.

Q: And the viscosity (303.15 K, x1 = 0.606)?
A: Its viscosity is 51.5 mPa·s.

Q: And the viscosity (303.15 K, x1 = 0.789)?
A: Its viscosity is 98.8 mPa·s.

Q: And the viscosity (303.15 K, x1 = 0.884)?
A: The viscosity was 131.1 mPa·s.

Q: What about the viscosity (303.15 K, x1 = 1) of the same molecule?
A: Its viscosity is 253 mPa·s.

Q: What about the viscosity (308.15 K, x1 = 0.285) of the same molecule?
A: Its viscosity is 7.85 mPa·s.

Q: And the viscosity (308.15 K, x1 = 0.369)?
A: Its viscosity is 11.31 mPa·s.

Q: What about the viscosity (308.15 K, x1 = 0.478) of the same molecule?
A: Its viscosity is 18 mPa·s.

Q: What about the viscosity (308.15 K, x1 = 0.606) of the same molecule?
A: Its viscosity is 39.2 mPa·s.

Q: And the viscosity (308.15 K, x1 = 0.789)?
A: Its viscosity is 74.1 mPa·s.

Q: What about the viscosity (308.15 K, x1 = 0.884) of the same molecule?
A: Its viscosity is 96.5 mPa·s.

Q: And the viscosity (308.15 K, x1 = 1)?
A: Its viscosity is 180.6 mPa·s.

Q: And the viscosity (313.15 K, x1 = 0.21)?
A: The viscosity was 4.98 mPa·s.

Q: And the viscosity (313.15 K, x1 = 0.285)?
A: The viscosity was 6.63 mPa·s.

Q: What about the viscosity (313.15 K, x1 = 0.369) of the same molecule?
A: Its viscosity is 9.67 mPa·s.

Q: What about the viscosity (313.15 K, x1 = 0.478) of the same molecule?
A: Its viscosity is 14.83 mPa·s.

Q: What about the viscosity (313.15 K, x1 = 0.606) of the same molecule?
A: Its viscosity is 30.3 mPa·s.

Q: And the viscosity (313.15 K, x1 = 0.789)?
A: Its viscosity is 56.1 mPa·s.

Q: And the viscosity (313.15 K, x1 = 0.884)?
A: Its viscosity is 75.2 mPa·s.

Q: And the viscosity (313.15 K, x1 = 1)?
A: The viscosity was 133.1 mPa·s.

Q: What about the viscosity (318.15 K, x1 = 0.285) of the same molecule?
A: Its viscosity is 5.91 mPa·s.

Q: What about the viscosity (318.15 K, x1 = 0.369) of the same molecule?
A: The viscosity was 8.25 mPa·s.

Q: And the viscosity (318.15 K, x1 = 0.478)?
A: Its viscosity is 12.54 mPa·s.

Q: What about the viscosity (318.15 K, x1 = 0.789) of the same molecule?
A: The viscosity was 42.7 mPa·s.

Q: What about the viscosity (318.15 K, x1 = 1) of the same molecule?
A: The viscosity was 102 mPa·s.

Q: And the viscosity (323.15 K, x1 = 0.21)?
A: Its viscosity is 3.81 mPa·s.

Q: And the viscosity (323.15 K, x1 = 0.369)?
A: Its viscosity is 7.12 mPa·s.

Q: And the viscosity (323.15 K, x1 = 0.478)?
A: The viscosity was 10.64 mPa·s.

Q: What about the viscosity (323.15 K, x1 = 0.606) of the same molecule?
A: Its viscosity is 19.2 mPa·s.

Q: What about the viscosity (323.15 K, x1 = 0.789) of the same molecule?
A: Its viscosity is 33.2 mPa·s.

Q: What about the viscosity (323.15 K, x1 = 0.884) of the same molecule?
A: Its viscosity is 47.5 mPa·s.

Q: What about the viscosity (323.15 K, x1 = 1) of the same molecule?
A: Its viscosity is 79.4 mPa·s.

Q: And the viscosity (328.15 K, x1 = 0.21)?
A: The viscosity was 3.39 mPa·s.

Q: What about the viscosity (328.15 K, x1 = 0.369) of the same molecule?
A: Its viscosity is 6.3 mPa·s.

Q: What about the viscosity (328.15 K, x1 = 0.478) of the same molecule?
A: Its viscosity is 9.15 mPa·s.

Q: And the viscosity (328.15 K, x1 = 0.789)?
A: The viscosity was 26.7 mPa·s.

Q: And the viscosity (328.15 K, x1 = 0.884)?
A: Its viscosity is 39 mPa·s.

Q: And the viscosity (328.15 K, x1 = 1)?
A: Its viscosity is 62.1 mPa·s.

Q: And the viscosity (333.15 K, x1 = 0.21)?
A: The viscosity was 3.08 mPa·s.

Q: What about the viscosity (333.15 K, x1 = 0.369) of the same molecule?
A: Its viscosity is 5.48 mPa·s.

Q: What about the viscosity (333.15 K, x1 = 0.478) of the same molecule?
A: Its viscosity is 7.97 mPa·s.

Q: What about the viscosity (333.15 K, x1 = 0.606) of the same molecule?
A: The viscosity was 12.9 mPa·s.

Q: What about the viscosity (333.15 K, x1 = 0.789) of the same molecule?
A: The viscosity was 21.7 mPa·s.

Q: What about the viscosity (333.15 K, x1 = 0.884) of the same molecule?
A: The viscosity was 32.8 mPa·s.

Q: What about the viscosity (333.15 K, x1 = 1) of the same molecule?
A: Its viscosity is 50.2 mPa·s.

Q: What about the viscosity (338.15 K, x1 = 0.21) of the same molecule?
A: Its viscosity is 2.77 mPa·s.

Q: And the viscosity (338.15 K, x1 = 0.285)?
A: Its viscosity is 3.69 mPa·s.

Q: And the viscosity (338.15 K, x1 = 0.369)?
A: Its viscosity is 4.89 mPa·s.

Q: And the viscosity (338.15 K, x1 = 0.478)?
A: The viscosity was 6.92 mPa·s.

Q: What about the viscosity (338.15 K, x1 = 0.606) of the same molecule?
A: Its viscosity is 10.5 mPa·s.

Q: And the viscosity (338.15 K, x1 = 0.884)?
A: The viscosity was 28.1 mPa·s.

Q: What about the viscosity (338.15 K, x1 = 1) of the same molecule?
A: Its viscosity is 40.7 mPa·s.

Q: And the viscosity (343.15 K, x1 = 0.285)?
A: The viscosity was 3.3 mPa·s.

Q: And the viscosity (343.15 K, x1 = 0.478)?
A: The viscosity was 6.06 mPa·s.

Q: What about the viscosity (343.15 K, x1 = 0.606) of the same molecule?
A: The viscosity was 8.81 mPa·s.

Q: What about the viscosity (343.15 K, x1 = 0.789) of the same molecule?
A: The viscosity was 15.07 mPa·s.

Q: What about the viscosity (348.15 K, x1 = 0.21) of the same molecule?
A: The viscosity was 2.3 mPa·s.

Q: What about the viscosity (348.15 K, x1 = 0.285) of the same molecule?
A: The viscosity was 3.01 mPa·s.

Q: What about the viscosity (348.15 K, x1 = 0.369) of the same molecule?
A: Its viscosity is 3.97 mPa·s.

Q: What about the viscosity (348.15 K, x1 = 0.478) of the same molecule?
A: Its viscosity is 5.44 mPa·s.

Q: And the viscosity (348.15 K, x1 = 0.606)?
A: Its viscosity is 7.34 mPa·s.

Q: And the viscosity (348.15 K, x1 = 0.789)?
A: The viscosity was 12.69 mPa·s.

Q: What about the viscosity (348.15 K, x1 = 1) of the same molecule?
A: The viscosity was 28.4 mPa·s.
